These results are taken from patent US20160270405A1, “Synergistic Compositions Comprising a Bacillus Subtilis Strain and a Pesticide” (BASF CORPORATION, priority 2013, published 2016).

In one experiment the test system is wheat. Put plainly: Improvement of plant growth in wheat: seed treatment, two week growth in seed germination pouches. The experiment is classed as in vivo. Conditions: pyraclostrobin 1 g a.i./100 kg seed and/or FB17 1 × 10^6 CFU per seed, two weeks growth. On the procedure:
(§1) Pyraclostrobin was applied to corn or wheat seeds as the commercial, liquid seed treatment formulation Stamina® (200 g per litre a.i., BASF Corporation, Research Triangle Park, North Carlolina), whereas Bacillus subtilis FB17 was applied to corn seeds as a SC formulation (about 2×10^10 CFU ml^−1).
Corn or wheat seeds were treated at the BASF Seed Solutions Technology Center (SSTC) in Ames, Iowa. Pyraclostrobin and Bacillus subtilis UD1022 were applied to maize seeds as water-based slurries by using methods consistent with commercial seed treatment applications in a laboratory-scale batch treater. […]
Corn or wheat plants were allowed to grow for two weeks. At the conclusion of the two week growth period, plant height and shoot and root dry weights were determined. Plant height was measured in centimeters. […] Shoot and root dry weights were measured in mg using an analytical balance.
Treatments were arranged in a completely randomized design with ten replications per treatment. Shoot height, shoot dry weight and root dry weight data were expressed as difference (%) relative to the not-treated control to facilitate application of Colby's formula (Colby, 1967) to calculate expected difference (EColby). […]

In the next experiment the test system is corn. Put plainly: Improvement of plant growth in corn: seed treatment, two week growth in seed germination pouches. The experiment is classed as in vivo. Conditions: pyraclostrobin 1 g a.i./100 kg seed and/or FB17 1 × 10^6 CFU per seed, two weeks growth. The procedure:
as §1
Corn or wheat seeds were treated at the BASF Seed Solutions Technology Center (SSTC) in Ames, Iowa. Pyraclostrobin and Bacillus subtilis UD1022 were applied to maize seeds as water-based slurries by using methods consistent with commercial seed treatment applications in a laboratory-scale batch treater. Briefly, 500 g of corn seeds were added to the drum of a laboratory-scale batch treater and 6 ml of prepared slurry (with appropriate amount of pyraclostrobin, Bacillus subtilis FB17, or combination thereof) was applied to the seed as the drum rotated. For 500 g of wheat seeds, 8 ml of slurry was used. Seed was rotated in the drum for 30 seconds following application of the slurry to assure uniform and complete coverage to the seed surface.
Treated seeds were placed in seed germination pouches (Mega International, St. Paul, Minn.) and 20 ml of fertilizer solution that provided 50 ppm nitrogen, 7.5 ppm phosphorus, and 37.5 ppm potassium (derived from calcium nitrate, potassium nitrate, phosphoric acid and adjusted to pH 6.5) was added to each pouch. Seed germination pouches were placed in 25° C. growth chambers with a 16 h photoperiod. Five ml of fertilizer solution was added to seed germination pouches at two day intervals to replenish water lost to evapotranspiration.
Corn or wheat plants were allowed to grow for two weeks. At the conclusion of the two week growth period, plant height and shoot and root dry weights were determined. Plant height was measured in centimeters. Shoot and root tissues were separated and dried in an oven at 68° C. for three days. Shoot and root dry weights were measured in mg using an analytical balance.
Treatments were arranged in a completely randomized design with ten replications per treatment. Shoot height, shoot dry weight and root dry weight data were expressed as difference (%) relative to the not-treated control to facilitate application of Colby's formula (Colby, 1967) to calculate expected difference (EColby).
EColby=PA+PB−PA*PB/100 • EColby expected difference, expressed in % difference from the not-treated control, when using the mixture of the active compounds A and B at the concentrations a and b • PA difference, expressed as % difference from the not-treated control, when using the active compound A at the concentration a • PB difference, expressed in % difference from the not-treated control, when using the active compound B at the concentration b.

For `COC(=O)N(OC)c1ccccc1COc1ccn(-c2ccc(Cl)cc2)n1` [Pyraclostrobin, pyraclostrobin], the “Difference (root dry weight) relative to not-treated control” value in the experiment with wheat stood at 17.4%. Further, the Root dry weight in the experiment with wheat (dried at 68° C. for three days) turned out to be 10.1 mg. Further, in the experiment on corn, the “Difference (shoot dry weight) relative to not-treated control” value was 1.1% and the “Difference (shoot height) relative to not-treated control” value turned out to be 3.5%. Moreover, the Shoot dry weight with corn (dried at 68° C. for three days) turned out to be 85.0 mg. Also, the Shoot height in the experiment on corn (mean of 10 measurements) is given as 29.7 cm.
